In patent US20020137162A1, “Antisense oligonucleotide inhibition of specific histone deacetylase isoforms” (priority 2000, published 2002):
d = 2'-deoxy (DNA); m = 2'-O-methyl

How the values were obtained:
human HDAC-4 = assay: Antisense ODN screen, HDAC-4 RNA, T24 cells; format: cell-based; conditions: 100 nM, 24 hours, Northern blot
Protocol: Seventeen phosphorothioate ODNs containing sequences complementary to the 5′ or 3′ UTR of the human HDAC-4 gene (GenBank Accession No. AB006626) were screened as above. […] HDAC-4 MM1 and MM2 oligonucleotides were created as controls; compared to the antisense oligonucleotides, they each contain a 6-base mismatch.
(§1) Briefly, human A549 and/or T24 human bladder carcinoma cells were seeded in 10 cm tissue culture dishes one day prior to oligonucleotide treatment. The cell lines were obtained from the American Type Culture Collection (ATCC) (Manassas, Va.) and were grown under the recommended culture conditions. Before the addition of the oligonucleotides, cells were washed with PBS (phosphate buffered saline). Next, lipofectin transfection reagent (GIBCO BRL Mississauga, Ontario, Calif.), at a concentration of 6.25 μg/ml, was added to serum free OPTIMEM medium (GIBCO BRL, Rockville, Md.), which was then added to the cells. The oligonucleotides to be screened were then added directly to the cells (i.e., one oligonucleotide per plate of cells). Mismatched oligonucleotides were used as controls. The same concentration of oligonucleotide (e.g., 50 nM) was used per plate of cells for each oligonucleotide tested.
(§2) Cells were harvested, and total RNAs were analyzed by Northern blot analysis. Briefly, total RNA was extracted using RNeasy miniprep columns (QIAGEN). […]

A549 [1] = assay: Cell growth inhibition, trypan blue cell count; format: cell-based, human; conditions: A549 cancer cells, 50 nM, 72 hours
Protocol: (§3) In order to determine the effect of HDAC OSDNs on cell growth and cell death through apoptosis, A549 or T24 cells, MDAmb231 cells, and HMEC cells (ATCC, Manassas, Va.) were treated with HDAC OSDNs as previously described.
(§4) Cells were harvested and cell numbers counted by trypan blue exclusion using a hemocytometer. Percentage of inhibition was calculated as (100—AS cell numbers/control cell numbers) %.

MDAmb231 [2] = assay: Cell growth inhibition, trypan blue cell count; format: cell-based, human; conditions: MDAmb231 cancer cells, 50 nM, 72 hours
Protocol: as §3, §4

T24 [3] = assay: Cell growth inhibition, trypan blue cell count; format: cell-based, human; conditions: T24 cancer cells, 50 nM, 72 hours
Protocol: as §3, §4

A549 [4] = assay: Apoptosis, Cell Death Detection ELISA; format: cell-based, human; conditions: fold over non-specific background, TSA at 100 ng/ml
Protocol: as §3
(§5) For the apoptosis study, cells were analyzed using the Cell Death Detection ELISA ^PLUSkit (Roche Diagnostic GmBH, Mannheim, Germany) according to the manufacturer's directions. Typically, 10,000 cells were plated in 96-well tissue culture dishes for 2 hours before harvest and lysis. Each sample was analyzed in duplicate. ELISA reading was done using a MR700 plate reader (DYNEX Technology, Ashford, Middlesex, England) at 410 nm. The reference was set at 490 nm.

HMEC [5] = assay: Apoptosis, Cell Death Detection ELISA; format: cell-based, human; conditions: fold over non-specific background, TSA at 100 ng/ml
Protocol: as §3, §5

MDAmb231 [6] = assay: Apoptosis, Cell Death Detection ELISA; format: cell-based, human; conditions: fold over non-specific background, TSA at 100 ng/ml
Protocol: as §3, §5

T24 [7] = assay: Apoptosis, Cell Death Detection ELISA; format: cell-based, human; conditions: fold over non-specific background, TSA at 100 ng/ml
Protocol: as §3, §5

p21 protein = assay: Western blot of p21 protein in A549 cells; format: cell-based, human
Protocol: Experiments were also conducted to examine the affect of HDAC antisense oligonucleotides on HDAC protein expression. In A549 cells, treatment with HDAC-4 antisene oligonucleotides results in a dramatic increase in the level of p21 protein (FIG. 15).

human HDAC-6 = assay: Antisense ODN screen, HDAC-6 RNA, T24 cells; format: cell-based; conditions: 100 nM, 24 hours, Northern blot
Protocol: Thirteen phosphorothloate ODNs containing sequences complementary to the 5′ or 3′ untranslated regions of the human HDAC-6 gene (GenBank Accession No. AJ011972) were screened as above. […] HDAC-6MM oligo was created as a control; compared to the antisense oligo, it contains a 7-base mismatch.
as §1, §2

HDAC-6 protein = assay: Western blot of HDAC isotype protein expression in A549 cells, HDAC-6; format: cell-based, human; conditions: 50 nM, 48 hours
Protocol: (§6) OSDN treatment conditions were as previously described.
(§7) Cells were lysed in buffer containing 1% Triton X-100, 0.5% sodium deoxycholate, 5 mM EDTA, 25 mM Tris-HC1, pH 7.5, plus protease inhibitors. Total protein was quantified by the protein assay reagent from Bio-Rad (Hercules, Calif.). 100 ug of total protein was analyzed by SDS-PAGE. Next, total protein was transferred onto a PVDF membrane and probed with various HDAC-specific primary antibodies. Rabbit anti-HDAC-1 (H-51), anti-HDAC-2 (H-54) antibodies (Santa Cruz Biotechnologies, Santa Cruz, Calif.) were used at 1:500 dilution. Rabbit anti-HDAC-3 antibody (Sigma, St. Louis, Mo.) was used at a dilution of 1:1000. Anti-HDAC-4 antibody was prepared as previously described (Wang, S. H. et al., (1999) Mol. Cell. Biol. 19:7816-27), and was used at a dilution of 1:1000. Anti-HDAC-6 antibody was raised by immunizing rabbits with a GST fusion protein containing a fragment of HDAC-6 protein (amino acid #990 to #1216, GenBank Accession No. AAD29048). Rabbit antiserum was tested and found only to react specifically to the human HDAC-6 isoform. HDAC-6 antiserum was used at 1:500 dilution in Western blots to detect HDAC-6 in total cell lysates. Horse Radish Peroxidase conjugated secondary antibody was used at a dilution of 1:5000 to detect primary antibody binding. […]

HMEC [8] = assay: Cell growth inhibition, trypan blue cell count; format: cell-based, human; conditions: HMEC normal cells, 50 nM, 72 hours
Protocol: as §3, §4

A549 cells = assay: Growth in soft agar, colony count; format: cell-based, human; conditions: colonies counted after three weeks
Protocol: 1.3 g granulated agar (DIDFCO) was added to 100 ml deionized water and boiled in a microwave to sterilize. The boiled agar was held at 55 C until further use. Iscove's Modified Dulbecco×s Medium (GIBCO/BRL), 100× Penicillin-Streptomycin-Glutamine (GIBCO/BRL) and fetal bovine serum (medicorp) were pre-warmed at 37 C. To 50 ml sterile tubes was added 9 ml Isove's medium, 2 ml fetal bovine serum and 0.2 ml 100× Pen-Strep-Gln. Then 9 ml 55 C 1.3% agar was added to each tube. The tube contents were mixed immediately, avoiding air bubbles, and 2.5 ml of the mixture was poured into each sterile 6 cm petri dish to form a polymerized bottom layer. Dishes with polymerized bottom layers were then put in a CO2 incubator at 37 C until further use. In 50 ml sterile tubes were prewarmed at 37 C for each 4 cell lines/samples, 20 ml Iscove's medium, 0.4 ml 100× Pen-Strep-Gln and 8 ml fetal bovine serum. Cells were trypsinized and counted by trypan blue staining and 20,000 cells were aliquotted into a sterile 15 ml tube. To the tube was then added DMEM with low glucose (GIBCO/BRL)+10% fetal bovine serum+Pen-Strep-Gln to a final volume of 1 ml. To the prewarmed 37 C mix in the 50 ml tube was quickly added 8 ml 55 C 1.3% agar, which was then mixed well. […] Plates were wrapped up in foil paper and incubated in a CO2 incubator at 37° C. for three weeks, at which time colonies in agar are counted.

human cancer cells = assay: Cell growth and apoptosis, summary for cancer cells; format: cell-based; conditions: Tables 3 and 4
Protocol: as §3, §5, §4

human HDAC-3 = assay: Antisense ODN screen, HDAC-3 RNA, T24 cells; format: cell-based; conditions: 100 nM, 24 hours, Northern blot
Protocol: Twenty-one phosphorothioate ODNs containing sequences complementary to the 5′ or 3′ UTR of the human HDAC-3 gene (GenBank Accession No. AF039703) were screened as above. […] HDAC-3 MM oligonucleotide was created as a control; compared to the antisense oligonucleotide, it contains a 6-base mismatch.
as §1, §2

HDAC-3 protein = assay: Western blot of HDAC isotype protein expression in A549 cells, HDAC-3; format: cell-based, human; conditions: 50 nM, 48 hours
Protocol: as §6, §7

Substance: 5-GCTGCCTGCCGTGCCCACCC-3′ (sugars from the 5' end m4 d12 m4, all phosphorothioate, methylation of C and T or U not given here) [HDAC-4 AS1]
- antisense activity to human HDAC-4 (human HDAC-4): antisense activity
- Growth Inhibition (AS vs. MM) (A549 [1]): +++ (“+++”: >75% inhibition)
- Growth Inhibition (AS vs. MM) (MDAmb231 [2]): ++ (“++”: 50-75% inhibition)
- Growth Inhibition (AS vs. MM) (T24 [3]): ++ (“++”: 50-75% inhibition)
- Apoptosis After 48 Hour Treatment (A549 [4]): +++ (“+++”: 5-8X fold)
- Apoptosis After 48 Hour Treatment (HMEC [5]): − (“−”: <= 2x fold over non-specific background)
- Apoptosis After 48 Hour Treatment (MDAmb231 [6]): ++ (“++”: 3-5X fold)
- Apoptosis After 48 Hour Treatment (T24 [7]): + (“+”: 2-3X fold)
- level of p21 protein (p21 protein): induces the expression

Substance: 5′-CAGGCTGGAATGAGCTACAG-3′ (chemistry not given here) [HDAC-6 AS]
- antisense activity to human HDAC-6 (human HDAC-6): antisense activity
- HDAC-6 protein expression (HDAC-6 protein): specifically inhibits
- Growth Inhibition (AS vs. MM) (A549 [1]): − (“−”: no inhibition)
- Growth Inhibition (AS vs. MM) (HMEC [8]): − (“−”: no inhibition)
- Growth Inhibition (AS vs. MM) (T24 [3]): − (“−”: no inhibition)
- Apoptosis After 48 Hour Treatment (A549 [4]): − (“−”: <= 2x fold over non-specific background)
- Apoptosis After 48 Hour Treatment (HMEC [5]): − (“−”: <= 2x fold over non-specific background)
- Apoptosis After 48 Hour Treatment (MDAmb231 [6]): − (“−”: <= 2x fold over non-specific background)
- Apoptosis After 48 Hour Treatment (T24 [7]): − (“−”: <= 2x fold over non-specific background)
- growth of A549 cells in soft agar (A549 cells): do not
- growth arrest and apoptosis of human cancer cells (human cancer cells): no effect

Substance: 5′-CGCTTTCCTTGTCATTGACA-3′ (chemistry not given here) [HDAC-3 AS]
- antisense activity to human HDAC-3 (human HDAC-3): antisense activity
- HDAC-3 protein expression (HDAC-3 protein): specifically inhibits
- Growth Inhibition (AS vs. MM) (A549 [1]): − (“−”: no inhibition)
- Growth Inhibition (AS vs. MM) (HMEC [8]): − (“−”: no inhibition)
- Growth Inhibition (AS vs. MM) (MDAmb231 [2]): − (“−”: no inhibition)
- Growth Inhibition (AS vs. MM) (T24 [3]): − (“−”: no inhibition)
- Apoptosis After 48 Hour Treatment (A549 [4]): − (“−”: <= 2x fold over non-specific background)
- Apoptosis After 48 Hour Treatment (HMEC [5]): − (“−”: <= 2x fold over non-specific background)
- Apoptosis After 48 Hour Treatment (MDAmb231 [6]): − (“−”: <= 2x fold over non-specific background)
- Apoptosis After 48 Hour Treatment (T24 [7]): − (“−”: <= 2x fold over non-specific background)
- growth arrest and apoptosis of human cancer cells (human cancer cells): no effect
